Source: patent US12285408B2, “Methods and compositions for the treatment of snake bite” (priority 2021, dated 2025)
pIC50: −log10 of the molar value.

What was measured:
S. miliarius venom = assay: Murine preincubation model of venom lethality, North American pit viper venom; format: in vivo, CD-1 mice; conditions: 2.5×LD50 S. miliarius venom preincubated with 60 μg of each drug, i.v., 6 h, n=5
Method: Thereafter, the same murine animal model was used to explore the efficacy of the same snake venom metalloproteinase and phospholipase A2 inhibiting drugs as solo and combination treatments against North American pit viper venoms. The intravenous median lethal dose (venom LD50) for C. atrox, C. scutulatus, S. miliariius and A. contortrix venoms was previously determined (3.79 μg, 0.17 μg, 4.87 μg and 4.99 μg per mouse, respectively). […] As described above, all experimental doses were prepared to a volume of 200 μl in PBS and incubated at 37° C. for 30 min prior to their intravenous injection via the tail vein. Animals were monitored for 6 h, and euthanized via rising concentrations of CO2 upon observation of previously defined humane end points that are predicators of lethality (e.g., seizure, pulmonary distress, paralysis, hemorrhage). Deaths, time of death, and survivors were recorded; where death/time of death represents the implementation of euthanasia based on defined humane end points.
These snake species were selected for their taxonomic diversity and clinical importance in the USA, namely: 1) Crotalus atrox (Western diamondback), which is found across the southwest USA and into Mexico and is thought to be the most common cause of snakebite envenoming in USA, 2) Crotalus scutulatus (Mojave rattlesnake), which is also found across the southwest USA and into Mexico, 3) Sistrurus miliarius (pygmy rattlesnake), which is found in the South-East USA, and 4) Agkistrodon contortrix (Eastern copperhead), which is found in central and eastern USA. […] The drug treatments consisted of: DMPS, marimastat, or varespladib as solo drug treatments, or a DMPS and varespladib combination, or a marimastat and varespladib combination.

[1] = tested on: procoagulant activities of viper venoms (E. ocellatus, E. carinatus, B. asper, D. russelii); assay: Plasma clotting assay, neutralization of procoagulant venom activity; format: biochemical; conditions: for pIC50: range across all venoms, 100 ng venom, bovine plasma, read-out: IC50, inhibition of procoagulant activity
Text: FIG. 11. SVMP-inhibitors neutralize the in vitro procoagulant activities of several geographically distinct viper venoms. […] The data presented represents the maximum clotting velocity, calculated as the maximum of the first derivative of each clotting curve, from triplicate independent repeat experiments with SEMs, where each technical repeat represents the mean of n≥2 technical replicates. EOC, E. ocellatus; ECAR, E. carinatus; BAS, Bothrops asper, BAR, Bitis arietans; DRUS, Daboia russelii. (B) Neutralization of procoagulant venom activity by four SVMP-inhibitors across four drug concentrations (150 μM to 150 nM). The data is expressed as the maximum clotting velocity at each dose. The negative (PBS) and positive (venom-only) controls are presented as intervals (bottom dashed and top dashed lines, respectively), with the latter representing the mean maximum clotting velocity in these samples±SEM. The data represent triplicate independent repeats with SEMs, where each technical repeat represents the mean of n≥2 technical replicates. Note the different y-axis scales.
Since SVMPs are key toxins associated with causing coagulopathy, we next investigated whether the same peptidomimetic and metal chelating inhibitors could also neutralize the procoagulant bioactivities of viper venoms. To do so, we used a validated kinetic absorbance-based assay monitoring plasma clotting^35 in the presence or absence of venoms and inhibitors (FIG. 11).
We used a previously developed plasma clotting assay^35 to measure venom-induced coagulation. Briefly, 100 ng of each venom was incubated at 37° C. for 30 min in the presence or absence of inhibitors (150 μM to 150 nM final concentrations). The final reaction consisted of 10 μl venom±inhibitors in PBS, 20 μl 20 mM CaCl2), and 20 μl citrated bovine plasma (VWR). The samples were pipetted in triplicate into 384-well plates, and absorbance monitored at 595 nm for 2 h at 25° C. on an Omega FLUOstar instrument. We calculated the maximum clotting velocity of each of the curves as per clot waveform analysis^67, by calculating the maximum of the first derivative. The means of at least three independent experimental runs for each condition were plotted at each inhibitor concentration with SEMs.

[2] = tested on: metalloproteinase activity of C. atrox, C. adamanteus and C. horridus venom; assay: In vitro snake venom metalloproteinase assay, North American rattlesnake venoms; format: biochemical, Crotalus atrox, Crotalus adamanteus, Crotalus horridus; conditions: 25 μM drug, 1 μg venom, range across the three rattlesnake venoms
Text: FIG. 6. […] Error bars represent standard deviation.
The remaining assay protocol with respects to fluorogenic substrate preparation, plate-read settings and data processing was the same as described above.
These species were selected for their clinical importance in the USA, namely: 1) Crotalus atrox (Western diamondback), which is found across the southwest USA and into Mexico and is thought to be the most common cause of snakebite envenoming in USA, 2) Crotalus horridus (Timber rattlesnake), which is found across Eastern and central USA, and is categorised as a Group I medically important snake by the World Health Organization. Furthermore, this species is not included in the immunising mixture of the current FDA-approved CroFab antivenom. 3) Crotalus adamanteus (Eastern diamondback), which is another Group I medically important snake, found in the South-East USA.

SMILES | protection against venom lethality (S. miliarius venom) | pIC50 [1] | inhibition of metalloproteinase activity [2] | neutralization of procoagulant activities ([1]; E. ocellatus, E. carinatus and B. asper venoms, highest dose 150 μM)
CCc1c(C(=O)C(N)=O)c2c(OCC(=O)O)cccc2n1Cc1ccccc1 [varespladib] | survived for longer periods of time than the venom only controls | – | – | –
CNC(=O)[C@@H](NC(=O)[C@H](CC(C)C)[C@H](O)C(=O)NO)C(C)(C)C [marimastat] | some protection | 5.72 to 6.82 | 90.9-99.1% | –
O=S(=O)(O)CC(S)CS (stereo not shown) [DMPS, 2,3-dimercapto-1-propanesulfonic acid] | – | 4.59 to 6.10 | 88.6-97.8% | effective at neutralizing the procoagulant activities
